# According to US11622964B2, “Method for destroying cellular mechanical homeostasis and promoting regeneration and repair of tissues and organs, and use thereof” (INSTITUTE OF ZOOLOGY, CHINESE ACADEMY OF SCIENCES, priority 2018, dated 2023):
# Entries after “also recorded” stand apart in the source; their conditions may differ.
# How the values were obtained:
# human fibroblasts = experiment: Cellular mechanical homeostasis and cell softening in human fibroblasts (phalloidin staining, immunofluorescence, quantitative PCR); type: cell-based
# Excerpt: FIG. 1A is a schematic diagram of laser confocal scanning.
# [1] = system: CCl4-induced chronic severe hepatic fibrosis; experiment: CCl4-induced chronic severe hepatic fibrosis model; type: in vivo, mice; settings: 1 mg or 3 mg per kg per day, intraperitoneal or tail vein injection, 6-8 weeks
# Method: The ICR, C57Bl/6 mice used in the experiment are purchased from SPF (Beijing) Biotechnology Co., Ltd., carbon tetrachloride is purchased from Aladdin Reagent (Shanghai) Co., Ltd. (C131583-1L), and corn oil is purchased from Sigma (C8267). 8-10 week-old female mice are selected and housed in the barrier for one week, they are randomly divided into two groups, and respectively injected with CCl4/corn oil (a volume ratio of 1:2) and corn oil. The dose of CCl4 is 2 ml/kg, twice a week for […]. After 6 weeks, the mice are anesthetized with 5% chloral hydrate, and part of the hepatic lobe is taken out, fixing with 4% paraformaldehyde, dehydrating and immersing in wax, then staining with Sirius Red (YY-R20384-100ML) kit for fibrosis, wherein the collagenous fibers are red, as shown in FIG. 3B. After successful identification of the modeling, the drug administration is performed by intraperitoneal injection or tail vein injection. […] Further, quantitative PCR is performed to identify the expression of fibrosis-related genes Acta2 (myofibroblast marker), Col1a1 (representing type I collagen), Col1a2 (representing type I collagen), Col6a1 (representing collagen), Col6a2 (representing collagen), and Vim (representing fibroblasts), as shown in FIG. 3E and FIG. 3F (continued). […]
# [2] = system: bleomycin-induced skin sclerosis; experiment: Bleomycin-induced scleroderma model; type: in vivo, mice; settings: 1-3 mg/kg/day intraperitoneal
# Excerpt: Scleroderma is a connective tissue disease characterized by localized or diffuse fibrosis of the skin and internal organs, thereby hardening and shrinking. The disease may cause multisystem injury, its exact cause and pathogenesis are still unclear, and there is no effective treatment means. […] One week after injection of bleomycin, the skin at the injection site on the back of mice begins to thicken and harden, and has poor elasticity; there is no change in hair growth until the end of the injection; meanwhile, induration and incrustation occurs at the injection site, accompanying with superficial ulcers. As for the shaved injection area on the back of the mice in the saline control group, the hair grows continuously, and no significant skin hardening and thickening phenomenon is observed, as shown in FIG. 7B. Treatment group (Bleb): intraperitoneal administration of myosin inhibitor (−)-blebbistatin (1-3 mg/kg/day, dissolved in 2-5% DMSO+30% PEG400+2% Tween 80+ddH2O); control group (con): without (−)-blebbistatin but containing the same amount of DMSO. […] Further experiments confirm that the myosin inhibitor (−)-blebbistatin promotes melanin accumulation in the induration zone and the growth of new hair, as shown in FIG. 7C.
# [3] = system: bleomycin-induced pulmonary fibrosis; experiment: Bleomycin-induced pulmonary fibrosis model; type: in vivo, mice; settings: 1-3 mg/kg/day
# Method: In the invention, bleomycin (BLM) is instilled into pulmonary tracheal of ICR or C57Bl/6 mice to successfully construct a mouse model of pulmonary fibrosis, and the mice are treated by intraperitoneal administration of myosin inhibitor (−)-blebbistatin. […] The detailed processes of injecting bleomycin are as follows:
# (1) Dilution of bleomycin: 50 mg/ml stock solution is diluted 25 times to obtain a final concentration of 2 mg/ml.
# (2) The mice are anesthetized by intraperitoneal injection of 0.5% sodium pentobarbital (100 μl/10 g b.w.).
# (3) The neck skin is disinfected by 75% alcohol, cutting the neck skin and bluntly separating the mucosa and muscles of the trachea, exposing the trachea, and taking care not to damage the thyroid.
# (4) 50 μl (20 g body weight) of bleomycin is injected into the interval of tracheal cartilage by an insulin syringe at a dose of 5 mg/kg. After the needle is pulled out, putting the console upright, rotating left and right for 1 min, and then the skin is sutured. The mice eat food and drink water freely after spontaneously awakening.
# The mice are identified and divided into two groups: DMSO (indicated as “Con” in FIG. 8) and (−)-blebbistatin (indicated as “Bleb” in FIG. 8, 1-3 mg/kg/day) are respectively administrated by intraperitoneal injection, wherein they are respectively dissolved in 2-5% DMSO+30% PEG400+2% Tween80+ddH2O. The survival status of the mice is recorded with intraperitoneal injection/day, tail vein injection/3 days. The result is shown in FIG. 8B, all the mice in the control group died on day 8 of treatment, while the mice in the Bleb treatment group have a survival rate of 40% on day 15 of treatment.
# (6) Small animal CT scanning is performed on D8 (modeling on D14), the samples are taken and fixed after heart perfusion, slicing the samples and performing H&E and Sirius red staining. The result is shown in FIG. 8D, (−)-blebbistatin inhibits tissue damage and fibrosis during bleomycin-induced lung damage.
structure (smiles),measurement,setting,value
Cc1ccc2c(c1)C(=O)[C@]1(O)CCN(c3ccccc3)C1=N2 [(−)-blebbistatin],EZH2 protein level and localization,human fibroblasts,down-regulated and it is localized at the cytoplasm
same,nucleus morphology,"human fibroblasts; 20 μM, vs DMSO control",irregular folds
same,stress fibers in the cell (phalloidin staining),"human fibroblasts; 20 μM, vs DMSO control",disintegrated
same,cells with obvious nuclear localization of stress effect protein YAP1/TAZ,human fibroblasts; after drug treatment,35%
same,proteins related to regulation of cellular mechanical hardness (quantitative PCR),human fibroblasts; after small molecule treatment,significantly down-regulated
same,modification of H3K27 trimethylation (immunofluorescence),human fibroblasts; day 4,significantly reduced
same,active transcriptional region labeled with fluorouridine,human fibroblasts; three biological replicates,also distributed near the periphery of the nucleus
same,heterochromatin HP1 proteins,human fibroblasts; vs DMSO control,the control group is significantly stronger than the experimental group
same,"accumulation of collagenous fibers (Sirius red, Col I staining)",[1],inhibits
same,activation of myofibroblasts,[1],inhibits
same,FGF9 expression (immunofluorescence),[2],more FGF9 is expressed
same,KRT17 positive cells relative to KRT18 positive cells (immunostaining),[2],much more
same,NeuN expression in the induration zone (neural fate),[2],expressed in some cells
same,accumulation of mesenchymal fibers (H&E and Masson staining),[2],significantly reduces
same,epidermal and dermal thickness,[2],significantly reduces
same,hair follicle cell proliferation (Ki-67 staining),[2],promotes
same,hair follicle regeneration (KRT17/PCNA co-immunostaining),[2],promotes hair follicle regeneration
same,melanin accumulation in the induration zone and growth of new hair,[2],promotes
same,number of hair follicles or glands,[2],promotes
same,degree of induration and incrustation,[2]; after 3 weeks of treatment,significantly reduced
same,decrease in lung volume (small animal CT),[3],inhibits the decrease
same,lung tissue damage (H&E staining),[3],inhibits
same,"pulmonary fibrosis (Sirius red staining, statistical analysis)",[3],inhibiting pulmonary fibrosis; also recorded: significantly improves; also recorded: inhibits
same,survival of mice with pulmonary fibrosis (in words),[3],significantly promoting survival
same,decrease in lung volume (small animal CT),[3]; listed as Bleb,significantly inhibits
same,lung tissue damage (H&E staining),[3]; listed as Bleb,relieves lung damage
same,"pulmonary fibrosis (Sirius red staining, statistical analysis)",[3]; listed as Bleb,relieves pulmonary fibrosis
same,survival of mice with pulmonary fibrosis (in words),[3]; listed as Bleb,significantly increases
same,survival rate,"[3]; day 15 of treatment, 10 mice per group",40%
